Patent US6706709B2, “Indolinone derivatives as protein kinase/phosphatase inhibitors” (Sugen, Inc., priority 2000, dated 2004)

Legend:
[1] = target: T1, EGF Receptor (Homo sapiens, UniProt P00533); test: bio EGF (EGF Receptor ELISA); format: biochemical
T1 construct: expressed in transfected cells; host or cells: NIH 3T3/C7 (mouse fibroblasts engineered to express human EGF-R)
Description: EGF Receptor kinase activity in cells genetically engineered to express human EGF-R was measured as described below:
The following materials and reagents were used:
b. 05-101 (UBI) (a monoclonal antibody recognizing an EGFR extracellular domain).
c. Anti-phosphotyrosine antibody (anti-Ptyr) (polyclonal).
d. Detection antibody: Goat anti-rabbit lgG horse radish peroxidase conjugate, TAGO, Inc., Burlingame, Calif.
Keep solution in dark at 4° C. until used.
The following protocol was used:
1. […] Coated plates are good for up to 10 days when stored at 4° C.
2. On day of use, remove coating buffer and replace with blocking buffer (5% Carnation Instant Non-Fat Dry Milk in PBS). Incubate the plate, shaking, at room temperature (about 23° C. to 25° C.) for 30 minutes. Just prior to use, remove blocking buffer and wash plate 4 times with TBST buffer.
2. Choose dishes having 80-90% confluence for the experiment. Trypsinize cells and stop reaction by adding 10% CS DMEM medium. Suspend cells in DMEM medium (10% CS DMEM medium) and centrifuge once at 1000 rpm at room temperature for 5 minutes.
3. Resuspend cells in seeding medium (DMEM, 0.5% bovine serum), and count the cells using trypan blue. Viability above 90% is acceptable. Seed cells in DMEM medium (0.5% bovine serum) at a density of 10,000 cells per well, 100 μL per well, in a 96 well microtiter plate. Incubate seeded cells in 5% CO2 at 37° C. for about 40 hours.
1. Check seeded cells for contamination using an inverted microscope. Dilute drug stock (10 mg/ml in DMSO) 1:10 in DMEM medium, then transfer 5 μL to a test well for a final drug dilution of 1:200 and a final DMSO concentration of 1%. Control wells receive DMSO alone. Incubate in 5% CO2 at 37° C. for one hour.
2. Prepare EGF ligand: dilute stock EGF in DMEM so that upon transfer of 10 μL dilute EGF (1:12 dilution), 25 nM final concentration is attained.
3. Prepare fresh 10 ml HNTG* sufficient for 100 μL per well wherein HNTG* comprises: HNTG stock (2.0 mL), milli-Q H2O (7.3 mL), EDTA, 100 mM, pH 7.0 (0.5 mL), Na3VO4 0.5 M (0.1 mL) and Na4(P2O7), 0.2 M (0.1 mL).
5. After two hours incubation with drug, add prepared EGF ligand to cells, 10 μL per well, to yield a final concentration of 25 nM. Control wells receive DMEM alone. Incubate, shaking, at room temperature, for 5 minutes.
6. Remove drug, EGF, and DMEM. Wash cells twice with PBS. Transfer HNTG* to cells, 100 μL per well. Place on ice for 5 minutes. Meanwhile, remove blocking buffer from other ELISA plate and wash with TBST as described above.
7. With a pipette tip securely fitted to a micropipettor, scrape cells from plate and homogenize cell material by repeatedly aspirating and dispensing the HNTG* lysis buffer. Transfer lysate to a coated, blocked, and washed ELISA plate. Incubate shaking at room temperature for one hour.
8. Remove lysate and wash 4 times with TBST. Transfer freshly diluted anti-Ptyr antibody to ELISA plate at 100 μL per well. Incubate shaking at room temperature for 30 minutes in the presence of the anti-Ptyr antiserum (1:3000 dilution in TBST).
9. Remove the anti-Ptyr antibody and wash 4 times with TBST. Transfer the freshly diluted TAGO 30 anti-rabbit IgG antibody to the ELISA plate at 100 μL per well. Incubate shaking at room temperature for 30 minutes (anti-rabbit IgG antibody: 1:3000 dilution in TBST).
10. Remove detection antibody and wash 4 times with TBST. Transfer freshly prepared ABTS/H2O2 solution to ELISA plate, 100 μL per well. Incubate at room temperature for 20 minutes. ABTS/H2O2 solution: 1.2 μL 30% H2O2in 10 mL ABTS stock.
11. Stop reaction by adding 50 μL 5N H2SO4 (optional), and determine O.D. at 410 nm.
12. The maximal phosphotyrosine signal is determined by subtracting the value of the negative controls from the positive controls. The percent inhibition of phosphotyrosine content for extract-containing wells is then calculated, after subtraction of the negative controls.

[2] = target: GST-Flk1 (UniProt P35918); test: GST-FLK-1 bioassay (bio flkGST); format: biochemical
Description: This assay analyzes the tyrosine kinase activity of GST-Flk1 on poly glu tyr peptides.
2. poly glu tyr 4:1, lyophilizate (Sigma Catalog # P0275). Prepare 1 mg/mL poly glu tyr in sterile PBS and store in 1 ml aliquots at −20° C.
3. Preparation of poly glu tyr (pEY) coated assay plates: Coat 2 μg/well of poly glu tyr (pEY) in 100 μL PBS at room temperature for 2 hours or at +4° C. overnight. Cover plates well to prevent evaporation.
4. PBS Buffer: To make 1 liter of a 1× working solution, mix […], 1.15 g NA2HPO4, 0.2 g KCl and 8 g NaCl in approx. 900 mL dH2O. When all reagents have dissolved, adjust the pH to 7.2 with HCl. Bring total volume to 1L with dH2O.
5. PBS-Tw Buffer: To 1L of PBS Buffer, add […] Tween-20. Stir until dissolved.
6. TBB-Blocking Buffer: To make one liter of a 1× working solution, mix 1.21 g TRIS, 8.77 g NaCl, 1 mL TWEEN-20 in approximately 900 mL dH2O. Adjust pH to 7.2 with HCl. Add 10 g BSA, stir to dissolve. Bring total volume to 1 L with dH2O. Filter to remove particulate matter.
7. 1% BSA in PBS: To make a 1× working solution, add 10 g BSA to approx. 990 mL PBS buffer, stir to dissolve. Adjust total volume to 1 L with PBS buffer, filter to remove particulate matter.
9. GST-Flk1cd purified from sf9 recombinant baculovirus transformation.
13. Kinase Dilution Buffer (KDB): Mix 10 mL Hepes (pH 7.5), 1 mL of 5 M NaCl, 40 μL of 100 mM NaVO4 and 0.4 mL of 5% BSA in dH2O with 88.56 mL of dH2O.
14. NUNC-96-well V bottom polypropylene plates Applied Scientific Catalog # AS-72092
15. EDTA: Mix 14.12 g ethylenediaminetetraacetic acid (EDTA) to approx. 70 mL dH2O. Add 10N NaOH until EDTA dissolves. Adjust pH to 8.0. Adjust total volume to 100 mL with dH2O.
16. 1° Antibody Dilution Buffer: Mix 10 mL of 5% BSA in PBS buffer with 89.5 mL TBSTw.
17. Anti-phosphotyrosine monoclonal conjugated to horseradish peroxidase (PY99 HRP, Santa Cruz Biotech).
18. 2,2′-Azino-bis(3-ethylbenzthiazoline-6-sulfonic acid (ABTS, Moss, Cat. No. ABST).
1. Coat Corning 96 well ELISA plates with 2 μg of polyEY peptide in sterile PBS as described in step 3 of Materials and Reagents.
2. Remove unbound liquid from wells by inverting plate. Wash once with TBSTw. Pat the plate on a paper towel to remove excess liquid.
3. Add 100 μL of 1% BSA in PBS to each well. Incubate, with shaking, for 1 hr. at room temperature.
5. Soak wells with 50 mM Hepes pH7.5 (150 μL/well).
6. Dilute test compound with dH2O/4% DMSO to 4 times the desired final assay concentration in 96-well polypropylene plates.
7. Add 25 μL diluted test compound to ELISA plate.
8. Add 25 μL of 40 mM MnCl2 with 4×ATP (2 μM) to all wells.
9. Add 25 μL 0.5 M EDTA to negative control wells.
10. Dilute GST-Flk1 0.005 μg (5 ng)/well in KDB. For 50 ml KDB add 100 μL of 0.050 mg/mL GST-Flk1 enzyme.
11. Add 50 μL of diluted enzyme to each well.
12. Incubate, with shaking, for 15 minutes at room temperature.
13. Stop reaction by adding 50 μL of 250 mM EDTA (pH 8.0).
14. Wash 3× with TBSTw and pat plate on paper towel to remove excess liquid.
15. Add 100 μL per well anti-phosphotyrosine HRP conjugate, 1:5,000 dilution in antibody dilution buffer. Incubate, with shaking for 90 min. at room temperature.
16. Wash as described above in step 14.
17. Add 100 μL of room temperature ABTS solution to each well.
18. Incubate, with shaking, for 10 to 15 minutes. Remove any bubbles.
19. Stop reaction by adding 20 μL of 10% SDS.
20. Read assay on Dynatech MR7000 ELISA reader: test filter at 410 nM; reference filter at 630 nM.

T1 sequence (P00533 25-1210): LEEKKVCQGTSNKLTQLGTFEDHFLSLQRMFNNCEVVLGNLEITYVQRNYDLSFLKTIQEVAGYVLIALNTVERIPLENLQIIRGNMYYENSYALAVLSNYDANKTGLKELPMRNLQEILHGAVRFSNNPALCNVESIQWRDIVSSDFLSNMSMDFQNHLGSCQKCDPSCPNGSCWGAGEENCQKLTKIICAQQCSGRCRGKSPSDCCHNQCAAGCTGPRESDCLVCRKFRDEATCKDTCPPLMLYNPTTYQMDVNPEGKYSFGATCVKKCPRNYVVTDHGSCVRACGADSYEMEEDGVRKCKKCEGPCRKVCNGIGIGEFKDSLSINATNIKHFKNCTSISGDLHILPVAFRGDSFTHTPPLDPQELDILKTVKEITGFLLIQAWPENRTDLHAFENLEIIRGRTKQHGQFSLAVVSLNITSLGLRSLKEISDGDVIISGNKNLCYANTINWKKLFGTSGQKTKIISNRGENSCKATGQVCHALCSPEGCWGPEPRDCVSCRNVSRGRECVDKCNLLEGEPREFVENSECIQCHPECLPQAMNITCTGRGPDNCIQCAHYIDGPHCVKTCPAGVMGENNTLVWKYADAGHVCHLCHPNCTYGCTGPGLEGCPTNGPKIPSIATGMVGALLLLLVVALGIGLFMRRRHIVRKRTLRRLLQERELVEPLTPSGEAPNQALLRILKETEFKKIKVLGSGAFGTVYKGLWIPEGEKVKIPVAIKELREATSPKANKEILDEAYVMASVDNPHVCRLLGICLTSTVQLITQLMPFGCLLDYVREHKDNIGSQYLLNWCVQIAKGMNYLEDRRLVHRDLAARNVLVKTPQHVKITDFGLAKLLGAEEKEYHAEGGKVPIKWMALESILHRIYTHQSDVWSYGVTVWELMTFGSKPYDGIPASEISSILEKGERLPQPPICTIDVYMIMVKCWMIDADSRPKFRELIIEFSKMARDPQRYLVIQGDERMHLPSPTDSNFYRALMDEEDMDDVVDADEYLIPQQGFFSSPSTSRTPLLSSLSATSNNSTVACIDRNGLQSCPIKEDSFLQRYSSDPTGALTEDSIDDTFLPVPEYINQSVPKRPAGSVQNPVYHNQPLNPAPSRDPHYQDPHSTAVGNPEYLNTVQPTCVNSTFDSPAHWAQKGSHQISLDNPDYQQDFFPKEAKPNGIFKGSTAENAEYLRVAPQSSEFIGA

Row | Structure (SMILES) | IC50 [1] [nM] | IC50 [2] [nM]
1 | CCN(CC)CCOc1ccc2[nH]c(C=C3C(=O)Nc4ccccc43)cc2c1 [IN-016, 3-[5-(2-diethylamino-ethoxy)-1H-indol-2-ylmethylene]-1,3-dihydro-indol-2-one] | > 10000 | 50
2 | O=C1Nc2cc(-c3ccc(F)cc3)ccc2C1=Cc1cc2cc(OCCN3CCCC3)ccc2[nH]1 [IN-029, 6-(4-fluoro-phenyl)-3-[5-(2-pyrrolidin-1-yl-ethoxy)-1H-indol-2-ylmethylene]-1,3-dihydro-indol-2-one] | > 20000 | 760
3 | CN(C)S(=O)(=O)c1ccc2c(c1)C(=Cc1cc3cc(OCCN4CCCC4)ccc3[nH]1)C(=O)N2 [IN-042, 2-oxo-3-[5-(2-pyrrolidin-1-yl-ethoxy)-1H-indol-2-ylmethylene]-2,3-dihydro-1H-indole-5-sulfonic acid dimethylamide] | 7840 | 1340
4 | O=C1Nc2ccccc2C1=Cc1cc2cc(OCCN3CCOCC3)ccc2[nH]1 [IN-007, 3-[5-(2-morpholin-4-yl-ethoxy)-1H-indol-2-ylmethylene]-1,3-dihydro-indol-2-one] | 37400 | 400
5 | Cc1[nH]c2ccccc2c1C=C1C(=O)Nc2ccc(S(N)(=O)=O)cc21 [IN-066, 3-(2-methyl-1H-indol-3-ylmethylene)-2-oxo-2,3-dihydro-1H-indole-5-sulfonic acid amide] | > 100000 | > 20000
6 | COc1cccc(-c2ccc3c(c2)NC(=O)C3=Cc2cc3cc(OCCN4CCCC4)ccc3[nH]2)c1 [IN-027, 6-(3-methoxy-phenyl)-3-[5-(2-pyrrolidin-1-yl-ethoxy)-1H-indol-2-ylmethylene]-1,3-dihydro-indol-2-one] | > 20000 | 2010

Results, then the compound that gave them:

Row | IC50 [1] [nM] | IC50 [2] [nM] | Structure (SMILES)
7 | 1230 | 1050 | O=C1Nc2ccc(S(=O)(=O)N3CCc4ccccc43)cc2C1=Cc1cc2cc(OCCN3CCCC3)ccc2[nH]1 [IN-046, 5-(2,3-dihydro-indole-1-sulfonyl)-3-[5-(2-pyrrolidin-1-yl-ethoxy)-1H-indol-2-ylmethylene]-1,3-dihydro-indol-2-one]
8 | 8430 | 210 | CNS(=O)(=O)c1ccc2c(c1)C(=Cc1cc3cc(OCCN4CCCC4)ccc3[nH]1)C(=O)N2 [IN-041, 2-oxo-3-[5-(2-pyrrolidin-1-yl-ethoxy)-1H-indol-2-ylmethylene]-2,3-dihydro-1H-indole-5-sulfonic acid methylamide]
9 | 6060 | 660 | COc1ccccc1-c1ccc2c(c1)NC(=O)C2=Cc1cc2cc(OCCN3CCCC3)ccc2[nH]1 [IN-028, 6-(2-methoxy-phenyl)-3-[5-(2-pyrrolidin-1-yl-ethoxy)-1H-indol-2-ylmethylene]-1,3-dihydro-indol-2-one]
10 | > 20000 | 17800 | O=C1Nc2ccc(S(=O)(=O)N3CCc4cc(Br)ccc43)cc2C1=Cc1cc2cc(OCCN3CCOCC3)ccc2[nH]1 [IN-064, 5-(5-bromo-2,3-dihydro-indole-1-sulfonyl)-3-[5-(2-morpholin-4-yl-ethoxy)-1H-indol-2-ylmethylene]-1,3-dihydro-indol-2-one]
11 | > 20000 | > 20000 | COc1ccc(-c2ccc3c(c2)NC(=O)C3=Cc2cc3cc(OCCN4CCOCC4)ccc3[nH]2)cc1 [IN-035, 6-(4-methoxy-phenyl)-3-[5-(2-morpholin-4-yl-ethoxy)-1H-indol-2-ylmethylene]-1,3-dihydro-indol-2-one]
12 | 2130 | 1160 | CN(c1cccc(Cl)c1)S(=O)(=O)c1ccc2c(c1)C(=Cc1cc3cc(OCCN4CCCC4)ccc3[nH]1)C(=O)N2 [IN-048, 2-oxo-3-[5-(2-pyrrolidin-1-yl-ethoxy)-1H-indol-2-ylmethylene]-2,3-dihydro-1H-indole-5-sulfonic acid (3-chloro-phenyl)-methyl-amide]
13 | > 100000 | 210 | NS(=O)(=O)c1ccc2c(c1)C(=Cc1cc3cc(OCCN4CCOCC4)ccc3[nH]1)C(=O)N2 [IN-040, 3-[5-(2-morpholin-4-yl-ethoxy)-1H-indol-2-ylmethylene]-2-oxo-2,3-dihydro-1H-indole-5-sulfonic acid amide]
14 | 41300 | 100 | O=C1Nc2ccccc2C1=Cc1cc2cc(OCCN3CCCC3)ccc2[nH]1 [IN-013, 3-[5-(2-pyrrolidin-1-yl-ethoxy)-1H-indol-2-ylmethylene]-1,3-dihydro-indol-2-one]
